{"source": "patent US7311919B2", "about": "“Agents for treating osteoporosis and inhibiting osteoclast formation” (Simpson Biotech Co., Ltd., priority 2003, dated 2007)", "system": "osteoclasts", "assay": "Osteoclast formation in co-culture of myelocytes and osteoblasts (TRAP staining)", "format": "cell-based", "conditions": "2 U/ml", "protocol": "Myelocytes and osteoblasts were co-cultured in vitro and the numbers of osteoclasts formed were measured. Myelocytes will differentiate into osteoclasts expressing tartrate-resisted acidic phosphatase (TRAP) when vitamin D is present in the coculture. These osteoclasts could be identified by staining for TRAP. Therefore the development of osteoclasts could be assayed by co-culturing myelocytes with osteoblasts.\nOsteoblasts and, myelocytes were co-cultured in 24-well plate. PTH (100 ng/ml), 1α, 25 (OH)2VD3 (10^−8 M), water extraction of the mycelium of C. Sinensis 3 mg/ml, 300 μg/ml, 30 μg/ml, 3 μg/ml or Elcatonin 2 U/ml were added. Samples were numbered No. 1˜No. 6. Each sample was cultured in 4 wells. Culture was maintained for 6 days with medium changed every two days.\nAfter coculturing, TRAP-positive cells were stained to dark red color. The numbers of TRAP-positive osteoclasts that have more than 3 nucleuses were counted. The average numbers of osteoclasts from 4 samples were the number of osteoclasts.\nThe numbers of osteoclasts in the 1α, 25 (OH)2D3 sample was considered 100%. The percentage of osteoclasts formed of experimental group was calculated using formula 1. Student's t-test was used to examine the significance.\nThe formation of osteoclasts (%) osteoclast cell numbers/osteoclast cell numbers in medium with 1α,25(OH)2D3×100 (formula 1)"}
{"substance": "Elcatonin", "values": [{"measurement": "Formation of osteoclasts (%)", "setting": "1α,25(OH)2D3 sample = 100%", "result": 13.8, "unit": "%"}, {"measurement": "Average Osteoclast cell numbers (n = 4)", "setting": "6 days co-culture", "result": 113.0}]}
